Drawing on patent US20240327709A1, “NON-LAMELLAR LIQUID CRYSTAL-FORMING COMPOSITION AND USE THEREOF” (FARNEX INCORPORATED, priority 2021, published 2024), this text covers gel composition formation, liquid crystal phase and q1 for four molecules.

A short description of series [1]: Gel formation test with water. Conditions: amphiphilic compound mixed with water alone, no phospholipid. It is filed as physicochemical. The protocol:
The precursor formulations Nos. 1 to 23 were subjected to gel formation test. A portion (about 100 to 300 mg) of each precursor formulation was added to an excess amount (about 0.5 to 2 mL) of water for injection in a vial, and the whole was mixed at room temperature (25° C.) with a spatula and/or a vortex mixer.
The precursor formulations Nos. 26 to 31 were subjected to gel formation test in a similar manner to that in Example 2.
The precursor formulations Nos. 36 to 40 were subjected to gel formation test. A portion (about 100 to 300 mg) of each precursor formulation was added to an excess amount (about 0.5 to 2 mL) of water for injection in a vial, and the whole was mixed at room temperature (25° C.) with a spatula and/or a vortex mixer.

Series [2] is described as follows: SAXS liquid crystal structure analysis of gel compositions. It is filed as physicochemical. As to conditions: amphiphilic compound mixed with water alone. An excerpt: The gel compositions formed from the precursor formulations Nos. 1 to 23 were each directly embedded in a pinhole slit and subjected to small-angle X-ray scattering diffractometry with a small-angle x-ray scattering (SAXS) apparatus (manufactured by Rigaku Corp., Nano-Viewer) to analyze the non-lamellar liquid crystal structure.
The obtained liquid crystal phases and scattering vector values q1 [nm^−1] of peaks located at the smallest angle are shown in Tables 1 and 2. […] There were some gel compositions having two types of different liquid crystal phases.

Each structure is given as a SMILES string.

As to `CCCCC/C=C\C/C=C\CCCCCCCC(=O)OCCC(C)O` (stereo not drawn) [1,3-Butylene glycol monolinoleate], the gel composition formation entry in series [1] is on record as “failed to form a gel composition”.
For `CCCCCCCC/C=C\CCCCCCCC(=O)OCCOCCO` [diethylene glycol monooleate, Diethylene glycol monooleate], the gel composition formation entry in series [1] was “formed a gel composition”. Further, in series [2], the liquid crystal phase entry is given as “HII” and the q1 is 1.35 nm⁻¹.
For the molecule `CCCCC/C=C\C/C=C\CCCCCCCC(=O)OC1COC2C(O)COC12` (stereo not drawn) [isosorbide monolinoleate], the gel composition formation entry in series [1] was “failed to form a gel composition”.
The same measure, in the same setting: the value for `CCCCC/C=C\C/C=C\CCCCCCCC(=O)OCCC(C)(C)O` [3-methyl-1,3-butanediol monolinoleate] was “failed to form a gel composition”.
